Reference: US11840686B2, “Modulation of prekallikrein (PKK) expression” (Ionis Pharmaceuticals, Inc., priority 2013, dated 2023)
Strand notation (5' to 3'): a small letter for the sugar, then the base; units joined by * are phosphorothioate-linked, units joined directly phosphodiester-linked; [ ] holds rarer units or linkages, { } end groups; capitals alone tell only the bases. e = 2'-O-(2-methoxyethyl) (MOE); [5mC] = 5-methylcytosine; d = 2'-deoxy (DNA)

What was measured:
human PKK mRNA [1] = assay: Antisense inhibition of human PKK mRNA in HepaRG cells, 5,000 nM (Example 2); format: cell-based
Procedure, shortened: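 Percent inhibition of PKK mRNA is reported relative to untreated cells, after adjustment for total RNA by RIBOGREEN. Gapmers of 16–20 nucleosides with 2′-MOE wings were delivered at 5,000 nM by electroporation into HepaRG cells and left for roughly 24 hours before RNA isolation.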

human PKK mRNA [2] = assay: Dose-dependent antisense inhibition of human PKK in HepaRG cells, 0.19-5.00 uM (Example 5); format: cell-based
Protocol: Cells were plated at a density of 20,000 cells per well and transfected using electroporation with 0.19 μM, 0.56 μM, 1.67 μM, and 5.00 μM concentrations of antisense oligonucleotide. After a treatment period of approximately 16 hours, RNA was isolated from the cells and PKK mRNA levels were measured by quantitative real-time PCR. Human PKK primer probe set RTS3454 was used to measure mRNA levels. PKK mRNA levels were adjusted according to total RNA content, as measured by RIBOGREEN®. The antisense oligonucleotides were tested in a series of experiments that had similar culture conditions.
The half maximal inhibitory concentration (IC50) of each oligonucleotide is also presented.

[3] = human PKK mRNA in HepaRG cells, 5-10-5 gapmers, Table 14
[4] = HepaRG cells, electroporation, approximately 16 hours, Table 36
[5] = HepaRG cells, electroporation, approximately 16 hours, Table 37
[6] = HepaRG cells, electroporation, approximately 16 hours, Table 35
[7] = Table 13, human PKK mRNA in HepaRG cells, 5-10-5 gapmers
[8] = HepaRG cells, electroporation, approximately 16 hours, Table 39
[9] = 4 point dose response, HepaRG cells, Table 39
[10] = Table 34, HepaRG, electroporation, ~16 h
[11] = HepaRG cells, electroporation, approximately 16 hours, Table 40

Question: Which results are given for “546854 (eT*eA*eA*e[5mC]*eA*dG*dT*dA*dT*d[5mC]*dA*d[5mC]*dT*dG*dT*e[5mC]*e[5mC]*eT*eA*eT; antisense) [compound 546854]”?
Answer: % inhibition (human PKK mRNA [1]; [3]): 90%; percent inhibition of PKK at 0.19 μM (human PKK mRNA [2]; [4]): 23%; percent inhibition of PKK at 0.56 μM (human PKK mRNA [2]; [4]): 39%; percent inhibition of PKK at 1.67 μM (human PKK mRNA [2]; [4]): 83%; percent inhibition of PKK at 5.00 μM (human PKK mRNA [2]; [4]): 94%; IC50 (human PKK mRNA [2]; 4 point dose response, HepaRG cells, Table 36): 600 nM

Question: Which results are given for “547622 (antisense eG*eT*e[5mC]*eA*e[5mC]*dT*dG*dT*dA*d[5mC]*d[5mC]*dT*dA*dT*dA*eA*e[5mC]*eT*e[5mC]*eT) [compound 547622]”?
Answer: % inhibition (human PKK mRNA [1]; [3]): 88%; percent inhibition of PKK at 0.19 μM (human PKK mRNA [2]; [5]): 0%; percent inhibition of PKK at 0.56 μM (human PKK mRNA [2]; [5]): 47%; percent inhibition of PKK at 1.67 μM (human PKK mRNA [2]; [5]): 79%; percent inhibition of PKK at 5.00 μM (human PKK mRNA [2]; [5]): 90%; IC50 (human PKK mRNA [2]; 4 point dose response, HepaRG cells, Table 37): 900 nM

Question: With “547273 (antisense eT*eG*eA*eG*eT*d[5mC]*dT*d[5mC]*dT*dT*dG*dT*d[5mC]*dA*d[5mC]*eT*eT*eA*eA*eA) [compound 547273]” as the substance, how does the “% inhibition” value (human PKK mRNA [1]; HepaRG cells, electroporation with 5,000 nM antisense oligonucleotide, approximately 24 hours, PKK mRNA by RT-PCR (RTS3454), relative to untreated control cells, Table 5 experiment) read?
Answer: 93%

Question: What about the “percent inhibition of PKK at 0.19 μM” value (human PKK mRNA [2]; [6]) of the same substance?
Answer: 44%

Question: What about the “percent inhibition of PKK at 0.56 μM” value (human PKK mRNA [2]; [6]) of the same substance?
Answer: 69%

Question: What about the “percent inhibition of PKK at 1.67 μM” value (human PKK mRNA [2]; [6]) of the same substance?
Answer: 87%

Question: What about the “percent inhibition of PKK at 5.00 μM” value (human PKK mRNA [2]; [6]) of the same substance?
Answer: 87%

Question: And the “percent inhibition of PKK at 5.00 μM” value (human PKK mRNA [2]; HepaRG cells, electroporation, approximately 16 hours, Table 41)?
Answer: 83%

Question: What about the “percent inhibition of PKK at 0.19 0μM” value (human PKK mRNA [2]; 0.19 0μM, HepaRG cells, electroporation, approximately 16 hours, Table 41) of the same substance?
Answer: 0%

Question: What about the “percent inhibition of PKK at 0.56 0μM” value (human PKK mRNA [2]; 0.56 0μM, HepaRG cells, electroporation, approximately 16 hours, Table 41) of the same substance?
Answer: 60%

Question: What about the “percent inhibition of PKK at 1.67 1μM” value (human PKK mRNA [2]; 1.67 1μM, HepaRG cells, electroporation, approximately 16 hours, Table 41) of the same substance?
Answer: 82%

Question: What about the IC50 (human PKK mRNA [2]; 4 point dose response, HepaRG cells, Table 35) of the same substance?
Answer: 200 nM

Question: And the IC50 (human PKK mRNA [2]; 4 point dose response, HepaRG cells, Table 41)?
Answer: 600 nM

Question: With “546835 (eT*eA*eA*e[5mC]*eT*d[5mC]*dT*dA*dA*d[5mC]*dA*dG*dT*dA*dT*e[5mC]*eA*e[5mC]*eT*eG; antisense) [compound 546835]” as the substance, how does the “% inhibition” value (human PKK mRNA [1]; [7]) read?
Answer: 86%

Question: And the “percent inhibition of PKK at 0.19 μM” value (human PKK mRNA [2]; [8])?
Answer: 9%

Question: What about the “percent inhibition of PKK at 0.56 μM” value (human PKK mRNA [2]; [8]) of the same substance?
Answer: 35%

Question: What about the “percent inhibition of PKK at 1.67 μM” value (human PKK mRNA [2]; [8]) of the same substance?
Answer: 68%

Question: What about the “percent inhibition of PKK at 5.00 μM” value (human PKK mRNA [2]; [8]) of the same substance?
Answer: 93%

Question: What about the IC50 (human PKK mRNA [2]; [9]) of the same substance?
Answer: 900 nM

Question: Which results are given for “546253 (eG*eT*e[5mC]*eT*e[5mC]*dT*dT*dG*dG*d[5mC]*dA*dA*dA*d[5mC]*dA*eT*eT*e[5mC]*eA*e[5mC]; antisense) [compound 546253]”?
Answer: % inhibition (human PKK mRNA [1]; Table 8, HepaRG cells, electroporation with 5,000 nM antisense oligonucleotide, approx. 24 hours, PKK mRNA by RT-PCR (RTS3454), relative to untreated control cells): 98%; percent inhibition of PKK at 0.19 μM (human PKK mRNA [2]; [10]): 1%; percent inhibition of PKK at 0.56 μM (human PKK mRNA [2]; [10]): 13%; percent inhibition of PKK at 1.67 μM (human PKK mRNA [2]; [10]): 46%; percent inhibition of PKK at 5.00 μM (human PKK mRNA [2]; [10]): 81%; IC50 (human PKK mRNA [2]; Table 34, PKK mRNA, HepaRG, electroporation, ~16 h): 1700 nM

Question: For “546848 (eT*e[5mC]*eA*e[5mC]*eT*dG*dT*d[5mC]*d[5mC]*dT*dA*dT*dA*dT*d[5mC]*eA*e[5mC]*eT*eG*eT; antisense) [compound 546848]”, which “% inhibition” value (human PKK mRNA [1]; [7]) is on record?
Answer: 86%

Question: And the “percent inhibition of PKK at 0.19 μM” value (human PKK mRNA [2]; [8])?
Answer: 0%

Question: What about the “percent inhibition of PKK at 0.56 μM” value (human PKK mRNA [2]; [8]) of the same substance?
Answer: 18%

Question: What about the “percent inhibition of PKK at 1.67 μM” value (human PKK mRNA [2]; [8]) of the same substance?
Answer: 91%

Question: What about the “percent inhibition of PKK at 5.00 μM” value (human PKK mRNA [2]; [8]) of the same substance?
Answer: 97%

Question: And the IC50 (human PKK mRNA [2]; [9])?
Answer: 1000 nM

Question: For “547728 (eG*eA*eG*eA*eT*dT*dG*dG*dT*dG*dG*dT*dG*dG*dG*eT*eG*eG*e[5mC]*eA; antisense) [compound 547728]”, which “% inhibition” value (human PKK mRNA [1]; HepaRG cells, 5,000 nM antisense oligonucleotide, 5-10-5 gapmers, Table 17) is on record?
Answer: 88%

Question: And the “percent inhibition of PKK at 0.19 μM” value (human PKK mRNA [2]; [11])?
Answer: 0%

Question: What about the “percent inhibition of PKK at 0.56 μM” value (human PKK mRNA [2]; [11]) of the same substance?
Answer: 2%

Question: And the “percent inhibition of PKK at 1.67 μM” value (human PKK mRNA [2]; [11])?
Answer: 16%

Question: What about the “percent inhibition of PKK at 5.00 μM” value (human PKK mRNA [2]; [11]) of the same substance?
Answer: 61%

Question: And the IC50 (human PKK mRNA [2]; 4 point dose response, HepaRG cells, Table 40)?
Answer: 4400 nM
